Drawing on patent US20230365571A1, “COMPOUNDS AND COMPOSITIONS AS Sppl2a INHIBITORS” (Novartis AG, priority 2020, published 2023), this text covers IC50 for 13 compounds.

Assay [1] has as its target T1, human SPPL2a (Homo sapiens, UniProt Q8TCT8).
T1 sequence (Q8TCT8 26-520): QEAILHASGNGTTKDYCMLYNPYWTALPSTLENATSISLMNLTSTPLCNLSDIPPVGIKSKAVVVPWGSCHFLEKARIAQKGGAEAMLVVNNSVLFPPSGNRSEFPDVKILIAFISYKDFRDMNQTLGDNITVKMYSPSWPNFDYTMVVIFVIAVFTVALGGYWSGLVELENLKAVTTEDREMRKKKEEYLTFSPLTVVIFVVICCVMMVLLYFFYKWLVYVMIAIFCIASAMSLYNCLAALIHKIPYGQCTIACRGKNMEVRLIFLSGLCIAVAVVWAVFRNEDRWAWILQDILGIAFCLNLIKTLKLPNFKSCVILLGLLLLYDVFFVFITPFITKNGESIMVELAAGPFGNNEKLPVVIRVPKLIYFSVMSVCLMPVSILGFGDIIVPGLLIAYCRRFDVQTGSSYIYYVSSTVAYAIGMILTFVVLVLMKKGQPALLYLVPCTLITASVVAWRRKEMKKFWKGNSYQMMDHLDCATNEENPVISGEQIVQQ
Nature of the assay: Sppl2a TL (translocation) imaging assay in U-2 OS cells. It counts as cell-based. Also on record: expressed in transfected cells. The conditions noted are these: U-2 OS cells expressing human SPPL2a and EGFP-TNFα(aa1-76) NTF substrate; 24 h. As for the experimental part:
SPPL2a, TL in U-2 OS Cells. Stable U-2 OS cell lines expressing human SPPL2a constitutively and a EGFP-labeled TNFα(aa1-76) NTF substrate under a doxycycline-regulated promoter were used for the imaging assays. Cells were seeded at 3000 cells/30 μL/384-well in DMEM/GlutaMax™-I (Invitrogen) supplemented with tetracycline-free 10% FBS (Amimed) and incubated at 37° C., 5% CO2 for 3-4 h. Subsequently, 3.3 μL of inhibitors, prediluted in doxycycline-containing medium for 11-point concentration-response curves, were added to each well using a CyBi well liquid handling device (Cybio AG, Jena, Germany) to result in final inhibitor concentrations ranging from 100 μM to 1 nM (final DMSO concentration 0.9% (v/v)) and 5 μg/mL doxycycline). The cells were incubated with inhibitor at 37° C., 5% CO2 for 24 h. Thereafter cell were fixed in 4% PFA/PBS and in parallel, nuclei were stained with Hoechst (Invitrogen) 1:5000 in PBS for 30 min. The plates were imaged using a Cellomics ArrayScan VTI HCS reader with 10×/0.3NA objective (Thermo Fisher Scientific, USA). Six images per well were acquired. Images for the EGFP signal (Ex395, Em509) and the Hoechst nuclear dye (Ex350, Em425) were acquired simultaneously with image analysis using the “Nuclear Translocation” assay algorithm of the Cellomics ArrayScan software. Nuclei were detected based on the Hoechst staining, the nuclear mask was transferred to the EGFP channel, and a 4 pixel wide cytoplasm ring region was defined around the nucleus. The intensity of the EGFP signal was measured both in the nuclear and in the cytoplasm ring region of each individual cell (in general 800-1000 individual cells were analyzed per well), and the difference of the average nuclear versus average cytoplasmic intensity of the EGFP signal was calculated (“CircRingAvgIntenDiffCh2”=“CircAvgIntenCh2”−“RingAvgIntenCh2”). Additionally the number of cells were acquired (feature termed “ValidCellCount”) and used to calculate cell toxicity (CC50). Percent inhibition was calculated relative to the positive (0.5 μM LY-411,575=100% inhibition) and negative (DMSO=0% inhibition) controls. The IC50 value was calculated from the plot of percentage of inhibition vs inhibitor concentration using nonlinear regression analysis software, e.g., Origin (OriginLab Corp.).

The target of assay [2] is T1, human SPPL2a. Kind of assay: Sppl2a RGA (reporter gene assay) in HEK293 cells. Also noted: expressed in transfected cells; host or cells: HEK293 (transient). The assay is classed as cell-based. The conditions noted are these: NT-TNF-VP16-Gal4 substrate, Gal4-luciferase reporter, 24 h. From the text:
Sppl2a RGA (Reporter Gene Assay):
Sppl2a is an intramembrane aspartyl protease with similarities to presenilin, the active subunit of the γ-secretase complex. The assay is based on the coupling of the proteolytic degradation of a membrane bound synthetic substrate (VP16-Gal4 fusion protein with the N-terminal domain of TNF alpha), which migrates to the nucleus upon cleavage, with the Gal4 driven expression of luciferase. Inhibition of Sppl2a results in a reduction of nuclear VP16-Gal4 activator and therefore in a reduction of the production of luciferase. The luciferase dependent-luminescence is plotted against the concentrations of compound to generate a dose response curve, which allows the calculation of the IC50 value.
DNA vectors encoding human Sppl2a, NT-TNF-VP16-Gal4 and a Gal4-luciferase reporter were transiently transfected in HEK293 cells. In a typical experiment 5 μg plasmid for SPPL2a, 10 μg plasmid encoding the reporter Gal4-luciferase and 20 μg plasmid encoding the substrate NT-TF-VP16-Gal4 were mixed together. The DNA mixture was combined with 107 μl FuGENE® (Promega), 735 μl Opti-MEM® (Life Technologies) and incubated for 5 minutes at RT. To this mixture 20 mL of concentrated HEK293 cells were added and thoroughly mixed. The cell suspension was distributed to a white solid 384 well plate. Within 5 hours, 50 nl of compound in DMSO was stamped into the wells via pintool. The plate was incubated for 24 h at 37° C., 5% CO2 in a humidified incubator, before the addition of 25 μl Bright Glo. After incubation at RT for 5 min, the plate was transferred to a luminometer and the luminescence was measured. The IC50 was determined by plotting compound concentration vs. normalized luminescence values.

As to `C[C@H](CNC(=O)c1ccnn1C)C(=O)N[C@@H]1C(=O)N2CCCN2Cc2ccccc21` [Example 61, 1-methyl-N-((R)-2-methyl-3-oxo-3-(((S)-11-oxo-2,3,10,11-tetrahydro-1H,5H-benzo[d]pyrazolo [1,2-a][1,2]diazepin-10-yl)amino)propyl)-1H-pyrazole-5-carboxamide], the IC50 in assay [1] is 686 nM; in assay [2] it was 691 nM.

For the compound `CC(C)NC(=O)c1cc(NC(=O)C[C@H](C(=O)N[C@@H]2C(=O)N3CCCN3Cc3ccccc32)C2CC2)n(C)n1` [Example 67, (S)-2-Cyclopropyl-N^4-(3-(isopropylcarba-moyl)-1-methyl-1H-pyrazol-5-yl)-N^1-((S)-11-oxo-2,3,10,11-tetrahydro-1H,5H-benzo[d]pyrazolo [1,2-a][1,2]diazepin-10-yl)succinamide], the IC50 in assay [1] amounted to 2 nM; in assay [2], 5 nM.

Turning to `C[C@H](CC(=O)Nc1cc(NC(=O)C(F)(F)C(F)(F)F)nn1C)C(=O)N[C@@H]1C(=O)N2CCCN2Cc2ccccc21` [Example 70, (R)-2-Methyl-N^4-(1-methyl-3-(2,2,3,3,3-pentafluoropro-panamido)-1H-pyrazol-5-yl)-N^1-((S)-11-oxo-2,3,10,11-tetrahydro-1H,5H-benzo[d]pyrazolo [1,2-a][1,2]diazepin-10-yl)succinamide], the values for the IC50 in assay [1] and in assay [2] were 4 nM and 13 nM, respectively.

In the case of `C[C@H](CC(=O)Nc1cc(-c2cc(C3CC3)no2)nn1C)C(=O)N[C@@H]1C(=O)N2CCCN2Cc2ccccc21` [Example 71, (R)-N^4-(3-(3-Cyclopropylisoxa-zol-5-yl)-1-methyl-1H-pyrazol-5-yl)-2-methyl-N^1-((S)-11-oxo-2,3,10,11-tetrahydro-1H,5H-benzo[d]pyrazolo [1,2-a][1,2]diazepin-10-yl)succinamide], the IC50 in assay [1] and in assay [2] was 4 nM each time.

As to `C[C@H](CC(=O)Nc1cc(-c2ccc(C(F)(F)F)nc2)nn1C)C(=O)N[C@@H]1C(=O)N2CCCN2Cc2ccccc21` [Example 72, (R)-2-Methyl-N^4-(1-methyl-3-(6-(trifluoromethyl)pyridin-3-yl)-1H-pyrazol-5-yl)-N^1-((S)-11-oxo-2,3,10,11-tetrahydro-1H,5H-benzo[d]pyrazolo [1,2-a][1,2]diazepin-10-yl)succinamide], the IC50 in assay [1] came out at 4 nM; in assay [2] it was 9 nM.

In the case of `C[C@H](CC(=O)Nc1sc(-c2ccn(C)n2)nc1Cl)C(=O)N[C@@H]1C(=O)N2CCCN2Cc2ccccc21` [Example 73, (R)-N^4-(4-Chloro-2-(1-methyl-1H-pyrazol-3-yl)thiazol-5-yl)-2-methyl-N^1-((S)-11-oxo-2,3,10,11-tetrahydro-1H,5H-benzo[d]pyrazolo [1,2-a][1,2]diazepin-10-yl)succinamide], the figures for the IC50 in assay [1] and in assay [2] were 4 nM and 25 nM, respectively.

In the case of `Cc1cncc(-c2cc(NC(=O)C[C@@H](C)C(=O)N[C@@H]3C(=O)N4CCCN4Cc4ccccc43)n(C)n2)c1` [Example 74, (R)-2-Methyl-N^4-(1-methyl-3-(5-methylpyridin-3-yl)-1H-pyrazol-5-yl)-N^1-((S)-11-oxo-2,3,10,11-tetrahydro-1H,5H-benzo[d]pyrazolo [1,2-a][1,2]diazepin-10-yl)succinamide], the IC50 in assay [1] stood at 4 nM; in assay [2], 13 nM.

On to `Cc1cncc(-c2cc(NC(=O)C[C@H](C(=O)N[C@@H]3C(=O)N4CCCN4Cc4ccccc43)C3CC3)n(C)n2)c1` [Example 75, (S)-2 Cyclopropyl-N^4-(1-methyl-3-(5-methylpyridin-3-yl)-1H-pyrazol-5-yl)-N^1-((S)-11-oxo-2,3,10,11-tetrahydro-1H,5H-benzo[d]pyrazolo [1,2-a][1,2]diazepin-10-yl)succinamide], for which the values for the IC50 in assay [1] and in assay [2] were 5 nM and 4 nM, respectively.

Take `C[C@@H](CF)NC(=O)c1cc(NC(=O)C[C@H](C(=O)N[C@@H]2C(=O)N3CCCN3Cc3ccccc32)C2CC2)n(C)n1` [Example 78, (S)-2-Cyclopropyl-N^4-(3-(((S)-1-fluoropropan-2-yl)carbamoyl)-1-methyl-1H-pyrazol-5-yl)-N^1-((S)-11-oxo-2,3,10,11-tetrahydro-1H,5H-benzo[d]pyrazolo [1,2-a][1,2]diazepin-10-yl)succinamide]: the IC50 in assay [1] worked out at 6 nM; in assay [2] it was 43 nM.

`Cc1nc(-c2cncc(F)c2)sc1NC(=O)C[C@@H](C)C(=O)N[C@@H]1C(=O)N2CCCN2Cc2ccccc21` [Example 79, (R)-N^4-(2-(5-fluoropyridin-3-yl)-4-methylthiazol-5-yl)-2-methyl-N^1-((S)-11-oxo-2,3,10,11-tetrahydro-1H,5H-benzo[d]pyrazolo [1,2-a][1,2]diazepin-10-yl)succinamide]: the IC50 in assay [1] came out at 7 nM; in assay [2], 10 nM.

With `CCc1cc(-c2cc(NC(=O)C[C@@H](C)C(=O)N[C@@H]3C(=O)N4CCCN4Cc4ccccc43)n(C)n2)no1` [Example 81, (R)-N^4-(3-(5-Ethylisoxazol-3-yl)-1-methyl-1H-pyrazol-5-yl)-2-methyl-N^1-((S)-11-oxo-2,3,10,11-tetrahydro-1H,5H-benzo[d]pyrazolo [1,2-a][1,2]diazepin-10-yl)succinamide], the IC50 in assay [1] turned out to be 8 nM; in assay [2], 5 nM.

As for `CCn1nc(-c2ccc(C(F)(F)F)nc2)cc1NC(=O)C[C@@H](C)C(=O)N[C@@H]1C(=O)N2CCCN2Cc2ccccc21` [Example 83, (R)-N^4-(1-Ethyl-3-(6-(trifluoromethyl)pyridin-3-yl)-1H-pyrazol-5-yl)-2-methyl-N^1-((S)-11-oxo-2,3,10,11-tetrahydro-1H,5H-benzo[d]pyrazolo [1,2-a][1,2]diazepin-10-yl)succinamide], the IC50 in assay [1] came to 9 nM; in assay [2] it was 6 nM.

As for `C[C@H](CC(=O)Nc1cc(C(=O)NCCC(F)(F)F)nn1C)C(=O)N[C@@H]1C(=O)N2CCCN2Cc2ccccc21` [Example 84, (R)-2-Methyl-N^4-(1-methyl-3-((3,3,3-trifluoropropyl)carbamoyl)-1H-pyrazol-5-yl)-N^1-((S)-11-oxo-2,3,10,11-tetrahydro-1H,5H-benzo[d]pyrazolo [1,2-a][1,2]diazepin-10-yl)succinamide], the IC50 was 9 nM in assay [1] and 40 nM in assay [2].
